From patent US7935814B2, “Nitroguanosine-3′ 5′-cyclic monophosphate compound and protein kinase G activating agent” (Kumamoto University, priority 2005, dated 2011)

How the values were obtained:
protein kinase G = target: T1, protein kinase G (Homo sapiens, UniProt Q13976); test: Effect of activating protein kinase G: phosphorylation of Ser 157 of VASP detected by Western blotting in human uterine smooth muscle cells; format: cell-based; conditions: for 50-kDa band of VASP having the phosphorylated Ser at position 157 (anti-VASP (Ser157) antibody): 1 mM compound, 5, 10, 15 and 30 minutes after addition, no bands at 0 minutes
T1 construct: host or cells: human uterine smooth muscle cells
T1 sequence (Q13976 1-671): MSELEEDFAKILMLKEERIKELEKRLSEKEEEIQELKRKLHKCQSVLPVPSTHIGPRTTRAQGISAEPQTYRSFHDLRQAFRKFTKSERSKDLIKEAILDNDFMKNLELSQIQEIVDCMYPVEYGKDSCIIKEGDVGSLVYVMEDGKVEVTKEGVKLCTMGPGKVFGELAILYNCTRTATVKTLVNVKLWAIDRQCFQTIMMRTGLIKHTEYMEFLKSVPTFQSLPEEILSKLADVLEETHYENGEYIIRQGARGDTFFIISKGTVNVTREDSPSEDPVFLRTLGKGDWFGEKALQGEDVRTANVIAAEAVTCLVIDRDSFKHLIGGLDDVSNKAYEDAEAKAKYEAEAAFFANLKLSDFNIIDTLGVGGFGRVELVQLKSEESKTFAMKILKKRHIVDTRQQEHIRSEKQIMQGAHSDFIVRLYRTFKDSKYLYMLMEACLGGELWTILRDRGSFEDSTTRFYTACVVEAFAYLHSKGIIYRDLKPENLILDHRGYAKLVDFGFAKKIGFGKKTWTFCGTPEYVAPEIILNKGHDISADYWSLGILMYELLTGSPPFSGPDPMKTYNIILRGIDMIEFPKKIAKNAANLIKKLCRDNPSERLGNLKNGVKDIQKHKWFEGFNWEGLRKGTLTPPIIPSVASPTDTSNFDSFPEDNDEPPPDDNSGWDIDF
Description: Intracellular signaling conducted by 8-nitroguanosine-3′,5′-cyclic monophosphate through mediation of protein kinase G was analyzed according to the method of Sergei D. Rybalkin et al (J. Biol. Chem. 277 3310-3317, 2002). Specifically, phosphorylation of Ser at position 157 of VASP (Vasodilator Stimulated Phosphoprotein), a substrate protein of protein kinase G, was detected by Western blotting. Specifically, human uterine smooth muscle cells (produced by CAMBREX) were cultured in Dulbecco's Modified Eagle Medium (DMEM-10% FCS) containing 10% fetal calf serum (FCS). The cells were seeded on a 6-well plate (produced by Falcon) at 4×10^5 cells/well and then cultured for 24 hours. The resultant was washed 3 times using phosphate buffered saline (PBS). Subsequently, DMEM-10% FCS containing 1 mM 8-nitroguanosine-3′,5′-cyclic monophosphate and 1 mM 8-Br-cGMP (produced by SIGMA) was added to the cells. Medium was immediately removed at 5 minutes, 10 minutes, 15 minutes, and 30 minutes after addition, followed by 2 instances of washing with PBS. A cell lysis solution (20 mM Tris-HCl (pH 8.0), 0.15 M NaCl, 1 mM EDTA, 1 mM EGTA, 1% TritonX-100, 2.5 mM sodium pyrophosphate, 1 mM β-glycerolphosphate, […], 1 μg/ml leupeptin, and 1 mM PMSF) was added. The resultant was allowed to stand on ice for 5 minutes, recovered using a cell scraper, transferred into an Eppendorf tube, and then ultrasonicated twice (5 seconds each). […] The protein concentration of the soluble fraction of the supernatant was determined using a BCA protein assay (produced by PIERCE). […] The resultant was then washed 3 times with TBST (10 minutes each), chemiluminescence was detected using LAS 1000plus (produced by FujiFilm) and ECL-plus (produced by Amersham Biosciences) as color developers, and then image files were incorporated. […] As is understood from the results in FIG. 1, no bands were detected at 0 minutes, but a 50-kDa band of VASP having the phosphorylated Ser at position 157 was detected at 5, 10, 15, and 30 minutes after addition of 8-nitroguanosine-3′,5′-cyclic monophosphate or 8-Br-cGMP.

[1] = test system: excised rat carotid artery ring specimen; test: Effect of relaxing vascular smooth muscle: phenylephrine pre-contracted excised rat carotid artery ring specimen, Magnus equipment; conditions: for concentration required for exertion of the tension variation of 0.1 g: 100 nM phenylephrine pre-contraction, resting tension 1 g
Description: The effect of relaxing vascular smooth muscle exerted by 8-nitroguanosine-3′,5′-cyclic monophosphate was determined according to the method of Magnus R (Ergen Physiol. 2, 637-672, 1903) by causing phenylephrine, which is an α1 adrenergic receptor agonist, to act to cause pre-contraction of an excised rat carotid artery ring specimen, adding 8-nitroguanosine-3′,5′-cyclic monophosphate at different concentrations, and then determining the resulting relaxing effect using Magnus laboratory equipment, Specifically, an SD rat (male, 10-week-old, body weight of 350 g, CHARLES RIVER LABORATORIES JAPAN, INC.) was sacrificed under ether anesthesia, a carotid artery was excised, a stainless-steel bar was inserted into the intravascular lumen, and then endothelial cells were removed through scraping, thereby preparing ring vascular specimens of approximately 4 mm each. The vascular specimens were immersed in 3 ml of a Krebs buffer (1.2 mM NaHPO4, 120 mM NaCl, 5.9 mM KCl, 2.5 mM CaCl2, 1.2 mM MgCl2, 15.5 mM NaHCO3, and 11.5 mM glucose). The Krebs buffer used herein had been previously kept at 37° C., aerated with 95% O2+5% CO2 for oxygenation, and adjusted to pH of 7.4. The ring vascular specimens were fixed within a microtissue organ bath MTOB-2 (produced by Labo Support Co., Ltd.). Isometric tension was measured at the resting tension of 1 g using an isometric transducer and an amplifier for such transducer (AG-621G Nihon Kohden Corporation). A PowerLab data acquisition apparatus (AD instruments) was used for data analysis. 1-Phenylephrine hydrochloride (produced by Wako Pure Chemical Industries, Ltd.) was added at a final concentration of 100 nM to the Krebs buffer, so as to sufficiently contract the blood vessels. 8-Nitroguanosine-3′,5′-cyclic monophosphate and 8-Br-cGMP were each cumulatively administered at final concentrations of 1 μM, 3 μM, 10 μM, 30 μM, 100 μM, and 300 μM. The relaxing action on vascular smooth muscle was determined. […] In particular, whereas the 8-nitroguanosine-3′,5′-cyclic monophosphate concentration required for exertion of the tension variation of 0.1 g was 10 μM, the 8-Br-cGMP concentration required for the same was 30 μM.

[2] = endothelium-removed rat carotid artery ring

50-kDa band of VASP having the phosphorylated Ser at position 157 (anti-VASP (Ser157) antibody) (protein kinase G) | 50-kDa band shifted to the higher molecular weight side because of phosphorylation (antibody recognizing the entire VASP molecule) (protein kinase G; 1 mM compound, at 5 minutes or more after addition, almost no 50-kDa band at 0 minutes) | SMILES | concentration required for exertion of the tension variation of 0.1 g [1, 2] [µM] | relaxing effect on blood vessel contracted using phenylephrine ([1]; endothelium-removed rat carotid artery ring, 100 nM phenylephrine, cumulative 1-300 μM) | effect of relaxing vascular smooth muscle relative to 8-Br-cGMP ([1]; rat carotid artery ring, from concentrations giving tension variation of 0.1 g)
detected | detected in all cases | Nc1nc2c(nc([N+](=O)[O-])n2C2O[C@@H]3COP(=O)(O)OC3C2O)c(=O)[nH]1 (stereo partly shown) [8-nitroguanosine-3′,5′-cyclic monophosphate] | 10 | exerted a relaxing effect | approximately 3 times
detected | – | Nc1nc2c(nc(Br)n2[C@@H]2O[C@@H]3COP(=O)(O)O[C@H]3[C@H]2O)c(=O)[nH]1 [8-Br-cGMP, 8-bromoguanosine-3′,5′-cyclic monophosphate, reference compound] | 30 | – | –
